Here are results for 4 compounds from patent EP0018155A2, “Novel cephalosporin compounds, a process for the preparation thereof, pharmaceutical compositions containing the same and the use thereof as a therapeutic agent against a microorganism” (NOVO NORDISK A/S, priority 1979, dated 1980).

Holding throughout (assay type): cell-based
Test [1] has as its system K. pneumoniae K8. The experiment in a line: agar serial dilution test (MIC). The settings on record: Klebsiella pneumoniae. As for the experimental part: (§1) The antibiotic activity in vitro of some compounds according to the invention and of some previously known compounds was tested by means of an agar serial dilution test. The following compounds were tested: 7β-[2-(2-Aminothiazol-4-yl)-2-diethylphosphoryloxyiminoacetamido] cephalosporanic acid (designated ES 643, 7β-[2-(2-amino- thiazol-4-yl)-2-dimethylphosphoryloxyiminoacetamido] cephalosporanic acid (designated ES 671), 7β-[2-(2-amino- thiazol-4-yl)-2-dimorpholinophosphoryloxyiminoacetamido] cephalosporanic acid (designated ES 656), 7β-[2-(2-amino- thiazol-4-yl)-2-methylmethylphosphonyloxyiminoacetamido] cephalosporanic acid (designated ES 682), 7β-[2-(2-amino- thiazol-4-yl)-2-hydroxyiminoacetamido] cephalosporanic acid (designated A), cefuroxime (designated B), and cephalotin (designated C). MIC designates minimum inhibitory concentration.

For test [2], the system named is S. albus 3348. Description: agar serial dilution test (MIC). As for the experimental part: as §1
The subject of test [3] is S. albus 3578. Description: agar serial dilution test (MIC). As for the experimental part: as §1
Test [4] has as its system S. aureus 13709. Description: agar serial dilution test (MIC). On the procedure: as §1
The test system of test [5] is P. vulgaris 16868. The experiment in a line: agar serial dilution test (MIC). As for the experimental part: as §1
Test [6] deals with P. vulgaris 17028. The experiment in a line: agar serial dilution test (MIC). As for the experimental part: as §1
In test [7] the test system is P. mirabilis 682. Description: agar serial dilution test (MIC). On the procedure: as §1
For test [8], the system named is S. aureus 209P. Description: agar serial dilution test (MIC). The settings on record: Staphylococcus aureus. As for the experimental part:
as §1

In test [9] the test system is P. mirabilis 2255. The experiment in a line: agar serial dilution test (MIC). On the procedure:
as §1

Test [10] deals with S. albus 12228. The experiment in a line: agar serial dilution test (MIC). As for the experimental part:
as §1

The test system of test [11] is P. morganii 18. The experiment in a line: agar serial dilution test (MIC). As for the experimental part: as §1
Test [12] has as its system K. edwardsii K1. Description: agar serial dilution test (MIC). On the procedure:
as §1

Test [13] concerns E. coli 04. The experiment in a line: agar serial dilution test (MIC). On the procedure: as §1
The test system of test [14] is E. coli 01. The experiment in a line: agar serial dilution test (MIC). On the procedure: as §1
In test [15] the test system is S. pyogenes 12384. The experiment in a line: agar serial dilution test (MIC). As for the experimental part: as §1
The subject of test [16] is P. vulgaris 5209. The experiment in a line: agar serial dilution test (MIC). As for the experimental part: as §1
The subject of test [17] is S. aureus 3349. Description: agar serial dilution test (MIC). On the procedure:
as §1

Test [18] has as its system S. aureus 3356. The experiment in a line: agar serial dilution test (MIC). As for the experimental part: as §1
Test [19] relates to S. pyogenes 12334. The experiment in a line: agar serial dilution test (MIC). As for the experimental part:
as §1

Test [20] has as its system P. morganii 69. Description: agar serial dilution test (MIC). As for the experimental part: as §1
Test [21] concerns P. mirabilis 2311. The experiment in a line: agar serial dilution test (MIC). As for the experimental part:
as §1

Test [22] has as its system P. vulgaris ATCC 6897. The experiment in a line: MIC value stated in Example 8. The settings on record: Proteus vulgaris, ATCC6897; against P. vulgaris ATCC 6897.
The mark [23] stands for this setting: K8, read-out: MIC value in μg/ml.
The mark [24] stands for this setting: Staphylococcus albus, 3348, read-out: MIC value in μg/ml.
The mark [25] stands for this setting: Staphylococcus albus, 3578, read-out: MIC value in μg/ml.
[26] abbreviates: Staphylococcus aureus, 13709, read-out: MIC value in μg/ml.
Setting [27] is: Proteus vulgaris, 16868, read-out: MIC value in μg/ml.
The mark [28] stands for this setting: Proteus vulgaris, 17028, read-out: MIC value in μg/ml.
Setting [29] is: Proteus mirabilis, 682, read-out: MIC value in μg/ml.
[30] abbreviates: 209P, read-out: MIC value in μg/ml.
Where [31] appears, read: Proteus mirabilis, 2255, read-out: MIC value in μg/ml.
Setting [32] is: Staphylococcus albus, 12228, read-out: MIC value in μg/ml.
Where [33] appears, read: Morganella morganii, 18, read-out: MIC value in μg/ml.
[34] abbreviates: Escherichia coli, 04, read-out: MIC value in μg/ml.
Where [35] appears, read: Escherichia coli, 01, read-out: MIC value in μg/ml.
[36] abbreviates: Streptococcus pyogenes, 12384, read-out: MIC value in μg/ml.
Setting [37] is: Proteus vulgaris, 5209, read-out: MIC value in μg/ml.
Where [38] appears, read: Staphylococcus aureus, 3349, read-out: MIC value in μg/ml.
[39] abbreviates: Staphylococcus aureus, 3356, read-out: MIC value in μg/ml.
[40] abbreviates: Streptococcus pyogenes, 12334, read-out: MIC value in μg/ml.
The mark [41] stands for this setting: Morganella morganii, 69, read-out: MIC value in μg/ml.
The mark [42] stands for this setting: Proteus mirabilis, 2311, read-out: MIC value in μg/ml.

≈ marks a conversion by molar mass, not a printed value. Where two headings read alike, the source gives them in different places.

Consider `CCOP(=O)(OCC)ON=C(C(=O)NC1C(=O)N2C(C(=O)O)=C(COC(C)=O)CSC12)c1csc(N)n1` (stereo not drawn) [ES 643, 7β-[2-(2-Aminothiazol-4-yl)-2-diethylphosphoryloxyiminoacetamido] cephalosporanic acid], for which the MIC worked out at 1.6 µg/mL (≈ 2.77 µM) in test [1] (setting [23]); 0.8 µg/mL (≈ 1.39 µM) in test [2] (setting [24]); 1.6 µg/mL (≈ 2.77 µM) in test [3] (setting [25]); 3.1 µg/mL (≈ 5.37 µM) in test [4] (setting [26]); 0.2 µg/mL (≈ 0.346 µM) in test [5] (setting [27]); 0.2 µg/mL (≈ 0.346 µM) in test [6] (setting [28]). Further, the MIC in test [7] (setting [29]) was less than 0.1 µg/mL; in test [8] (setting [30]), 3.1 µg/mL (≈ 5.37 µM); in test [9] (setting [31]), less than 0.1 µg/mL; in [10] (setting [32]) it was 1.6 µg/mL (≈ 2.77 µM); in test [11] (setting [33]), 1.6 µg/mL (≈ 2.77 µM); in [12] (read-out: MIC value in μg/ml), 0.8 µg/mL (≈ 1.39 µM). Besides, the MIC is 0.8 µg/mL (≈ 1.39 µM) in test [13] (setting [34]); 0.2 µg/mL (≈ 0.346 µM) in [14] (setting [35]); less than 0.1 µg/mL in test [15] (setting [36]); 0.8 µg/mL (≈ 1.39 µM) in [16] (setting [37]); 1.6 µg/mL (≈ 2.77 µM) in [17] (setting [38]); 1.6 µg/mL (≈ 2.77 µM) in [18] (setting [39]). Moreover, the MIC in [19] (setting [40]) is less than 0.1 µg/mL; in [20] (setting [41]), 0.2 µg/mL (≈ 0.346 µM); in [21] (setting [42]), less than 0.1 µg/mL.
As to `CC(=O)OCC1=C(C(=O)O)N2C(=O)C(NC(=O)C(=NOP(=O)(N3CCOCC3)N3CCOCC3)c3csc(N)n3)C2SC1` (stereo not drawn) [ES 656, 7β-[2-(2-amino-thiazol-4-yl)-2-dimorpholinophosphoryloxyiminoacetamido] cephalosporanic acid], the MIC in test [1] (K. pneumoniae K8, read-out: MIC value) came to 0.4 µg/mL (≈ 0.606 µM); in test [2] (Staphylococcus albus, S. albus 3348, read-out: MIC value) it was 0.2 µg/mL (≈ 0.303 µM); in test [3] (Staphylococcus albus, S. albus 3578, read-out: MIC value), 0.2 µg/mL (≈ 0.303 µM); in [4] (Staphylococcus aureus, S. aureus 13709, read-out: MIC value), 0.2 µg/mL (≈ 0.303 µM); in test [5] (Proteus vulgaris, P. vulgaris 16868, read-out: MIC value) it was 12.5 µg/mL (≈ 18.9 µM); in [6] (Proteus vulgaris, P. vulgaris 17028, read-out: MIC value) it was 25 µg/mL (≈ 37.9 µM). Further, the MIC in [7] (Proteus mirabilis, P. mirabilis 682, read-out: MIC value) was less than 0.1 µg/mL; in [8] (S. aureus 209P, read-out: MIC value), 0.2 µg/mL (≈ 0.303 µM); in [9] (Proteus mirabilis, P. mirabilis 2255, read-out: MIC value) it was 0.2 µg/mL (≈ 0.303 µM); in test [10] (Staphylococcus albus, S. albus 12228, read-out: MIC value) it was 0.2 µg/mL (≈ 0.303 µM); in [11] (Morganella morganii, P. morganii 18, read-out: MIC value), 1.6 µg/mL (≈ 2.43 µM); in [12] (K. edwardsii K1, read-out: MIC value), 1.6 µg/mL (≈ 2.43 µM). The MIC is 0.2 µg/mL (≈ 0.303 µM) in test [13] (Escherichia coli, E. coli 04, read-out: MIC value); less than 0.1 µg/mL in [14] (Escherichia coli, E. coli 01, read-out: MIC value); less than 0.1 µg/mL in [15] (Streptococcus pyogenes, S. pyogenes 12384, read-out: MIC value); 50 µg/mL (≈ 75.8 µM) in [16] (Proteus vulgaris, P. vulgaris 5209, read-out: MIC value); 0.4 µg/mL (≈ 0.606 µM) in [17] (Staphylococcus aureus, S. aureus 3349*, penicillin-resistant strain, read-out: MIC value); 0.2 µg/mL (≈ 0.303 µM) in [18] (Staphylococcus aureus, S. aureus 3356*, penicillin-resistant strain, read-out: MIC value). The MIC is less than 0.1 µg/mL in [19] (Streptococcus pyogenes, S. pyogenes 12334, read-out: MIC value); 3.1 µg/mL (≈ 4.7 µM) in test [20] (Morganella morganii, P. morganii 69, read-out: MIC value); 0.2 µg/mL (≈ 0.303 µM) in test [21] (Proteus mirabilis, P. mirabilis 2311, read-out: MIC value).
With `COP(=O)(OC)ON=C(C(=O)NC1C(=O)N2C(C(=O)O)=C(COC(C)=O)CSC12)c1csc(N)n1` (stereo not drawn) [ES 671, 7β-[2-(2-amino-thiazol-4-yl)-2-dimethylphosphoryloxyiminoacetamido] cephalosporanic acid], the MIC in [1] (setting [23]) is 0.4 µg/mL (≈ 0.728 µM); in [2] (setting [24]) it was 0.8 µg/mL (≈ 1.46 µM); in test [3] (setting [25]) it was 0.8 µg/mL (≈ 1.46 µM); in test [4] (setting [26]), 1.6 µg/mL (≈ 2.91 µM); in [5] (setting [27]), less than 0.1 µg/mL; in test [6] (setting [28]) it was less than 0.1 µg/mL. The MIC in test [7] (setting [29]) is less than 0.1 µg/mL; in [8] (setting [30]), 3.1 µg/mL (≈ 5.64 µM); in test [9] (setting [31]), 0.1 µg/mL (≈ 0.182 µM); in [10] (setting [32]) it was 0.4 µg/mL (≈ 0.728 µM); in test [11] (setting [33]), less than 0.1 µg/mL; in test [12] (read-out: MIC value in μg/ml), 0.2 µg/mL (≈ 0.364 µM). Besides, the MIC was 0.4 µg/mL (≈ 0.728 µM) in test [13] (setting [34]); 0.2 µg/mL (≈ 0.364 µM) in test [14] (setting [35]); less than 0.1 µg/mL in [15] (setting [36]); 0.2 µg/mL (≈ 0.364 µM) in test [16] (setting [37]); 1.6 µg/mL (≈ 2.91 µM) in test [17] (setting [38]); 1.6 µg/mL (≈ 2.91 µM) in [18] (setting [39]). The values for the MIC in [19] (setting [40]), in test [20] (setting [41]) and in [21] (setting [42]) were less than 0.1 µg/mL, 0.4 µg/mL (≈ 0.728 µM) and less than 0.1 µg/mL, respectively.
In the case of `COP(=O)(O)ON=C(C(=O)NC1C(=O)N2C(C(=O)O)=C(COC(C)=O)CSC12)c1csc(N)n1` (stereo not shown) [Example 8b], in test [22], the MIC was 0.2 µg/mL (≈ 0.374 µM).
